According to ChEMBL document CHEMBL2218064, “Structure-activity relationship data for chemical series of antagonists of the P2X7 receptor (Supplementary Bioactivity Data for publication CHEMBL1157114)”:

Each compound was assayed against T1, P2X purinoceptor 7 (Homo sapiens, UniProt Q99572) (assay: SUPPLEMENTARY: Inhibition of human P2X7 receptor assessed as inhibition of ethidium bromide accumulation. Same assay as CHEMBL1103860).
T1 sequence (Q99572 whole entry): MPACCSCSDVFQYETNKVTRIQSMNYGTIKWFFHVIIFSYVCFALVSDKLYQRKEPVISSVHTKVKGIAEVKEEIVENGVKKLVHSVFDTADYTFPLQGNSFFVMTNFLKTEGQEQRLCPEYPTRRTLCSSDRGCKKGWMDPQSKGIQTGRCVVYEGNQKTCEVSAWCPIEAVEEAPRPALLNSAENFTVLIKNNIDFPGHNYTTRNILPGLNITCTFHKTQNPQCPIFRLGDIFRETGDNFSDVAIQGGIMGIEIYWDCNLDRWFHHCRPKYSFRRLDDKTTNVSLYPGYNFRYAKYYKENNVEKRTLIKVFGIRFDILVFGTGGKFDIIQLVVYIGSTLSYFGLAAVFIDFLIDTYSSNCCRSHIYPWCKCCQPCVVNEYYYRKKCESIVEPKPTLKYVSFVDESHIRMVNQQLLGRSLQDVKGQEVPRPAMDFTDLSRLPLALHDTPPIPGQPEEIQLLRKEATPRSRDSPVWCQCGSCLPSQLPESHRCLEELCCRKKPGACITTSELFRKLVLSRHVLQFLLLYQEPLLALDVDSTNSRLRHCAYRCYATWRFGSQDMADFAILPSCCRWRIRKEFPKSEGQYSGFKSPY

SMILES | IC50 [nM]
Cc1cccc(C)c1CNC(=O)Cc1c(C)nn(-c2ccccc2)c1C | 63.1
CN1C(=O)CCC1(C)C(=O)NCc1ccc(Cl)cc1Cl (stereo not given) | 200
CCN1C(=O)CC[C@@H]1C(=O)NCc1ccc(Cl)c(C(F)(F)F)c1 | 316
CCN1C(=O)CC[C@@H]1C(=O)NCc1c(C)cccc1Cl | 501
Cc1cc(Cl)ccc1CNC(=O)[C@@H]1CCC(=O)N1C | 25.1
CN1C(=O)CC[C@H]1C(=O)NCc1ccc(F)cc1C(F)(F)F | 100
CN1C(=O)CC[C@H]1C(=O)NCc1cccc(Cl)c1Cl | 15.8
CN1C(=O)CC[C@H]1C(=O)NCc1c(Cl)cccc1Cl | 126
Cc1c(CC(=O)NCc2ccc(F)cc2Cl)cnn1-c1ccc(F)cc1 | 251
Cc1nn(-c2ncccc2C(F)(F)F)c(C)c1CC(=O)NCc1ccc(F)cc1Cl | 501
Cc1nn(C2CCN(Cc3ccccc3)CC2)c(C)c1CC(=O)NCc1ccc(F)cc1Cl | 63.1
Cc1nn(C(C)C)c(C)c1CC(=O)NCc1ccc(F)cc1Cl | 631
Cc1nn(CC2CCCCC2)c(C)c1CC(=O)NCc1ccc(F)cc1Cl | 631
CCn1nc(C)c(CC(=O)NCc2ccc(F)cc2Cl)c1C | 200
Cc1nn(CC(C)(C)C)c(C)c1CC(=O)NCc1ccc(F)cc1Cl | 100
Cc1nn(Cc2ccccc2N(C)C)c(C)c1CC(=O)NCc1ccc(F)cc1Cl | 251
Cc1nn(C2CCN(C)CC2)c(C)c1CC(=O)NCc1ccc(F)cc1Cl | 126
Cc1nn(CC(F)(F)F)c(C)c1CC(=O)NCc1ccc(F)cc1Cl | 316
Cc1nn(Cc2nc3ccccc3s2)c(C)c1CC(=O)NCc1ccc(F)cc1Cl | 398
Cc1nn(-c2ccc(C(=O)NCc3ccccn3)cc2)c(C)c1CC(=O)NCc1ccc(F)cc1Cl | 15.8
Cc1nn(CC(C)C)c(C)c1CC(=O)NCc1ccc(F)cc1Cl | 251
Cc1nn(C2CCCC2)c(C)c1CC(=O)NCc1ccc(F)cc1Cl | 501
Cc1nn(C2CCOCC2)c(C)c1CC(=O)NCc1ccc(F)cc1Cl | 1260
O=C(Cc1cnn(-c2ccc(F)cc2)c1C(F)(F)F)NCc1ccc(F)cc1Cl | 1260
Cc1ccc(-n2nc(C)c(CC(=O)NCc3ccc(F)cc3Cl)c2C)nn1 | 631
Cc1nn(CC(=O)O)c(C)c1CC(=O)NCc1ccc(F)cc1Cl | 1260
CCN(CC)C(=O)Cn1nc(C)c(CC(=O)NCc2ccc(F)cc2Cl)c1C | 501

SMILES | IC50 [nM]
Cc1nn(Cc2ccncc2)c(C)c1CC(=O)NCc1ccc(F)cc1Cl | 316
Cc1cc(-n2nc(C)c(CC(=O)NCc3ccc(F)cc3Cl)c2C)nc(C)n1 | 200
C=C(C)CN1C(=O)CC[C@H]1C(=O)NCc1ccc(F)cc1Cl | 398
Cc1ccc(-n2nc(C)c(CC(=O)NCc3ccc(F)cc3Cl)c2C)cn1 | 251
Cc1nn(Cc2ccccn2)c(C)c1CC(=O)NCc1ccc(F)cc1Cl | 398
Cc1nn(C(C)(C)C)c(C)c1CC(=O)NCc1ccc(F)cc1Cl | 398
Cc1nn(CCN2CCOCC2)c(C)c1CC(=O)NCc1ccc(F)cc1Cl | 251
Cc1ccc(-n2nc(C)c(CC(=O)NCc3ccc(F)cc3Cl)c2C)c(C)n1 | 398
Cc1ccncc1-n1nc(C)c(CC(=O)NCc2ccc(F)cc2Cl)c1C | 398
Cc1cc(-n2nc(C)c(CC(=O)NCc3ccc(F)cc3Cl)c2C)ccn1 | 316
CCN(CC)CCn1nc(C)c(CC(=O)NCc2ccc(F)cc2Cl)c1C | 200
Cc1nn(CCN2CCCCC2)c(C)c1CC(=O)NCc1ccc(F)cc1Cl | 50.1
Cc1nn(CCN2CCCC2)c(C)c1CC(=O)NCc1ccc(F)cc1Cl | 126
Cc1ccccc1-n1cc(CC(=O)NCc2ccc(F)cc2Cl)cn1 | 631
CCc1ccccc1-n1cc(CC(=O)NCc2ccc(F)cc2Cl)cn1 | 251
Cc1nn(-c2ccccc2)c(C)c1CC(=O)NCc1cccc(Cl)c1C | 31.6
Cc1nn(-c2ccccc2)c(C)c1CC(=O)NCc1ccc(F)c(F)c1 | 251
Cc1nn(-c2ccccc2)c(C)c1CC(=O)NCc1ccc(F)c(F)c1F | 63.1
Cc1ccc(C)c(CNC(=O)Cc2c(C)nn(-c3ccccc3)c2C)c1 | 794
Cc1ccc(Cl)cc1CNC(=O)Cc1c(C)nn(-c2ccccc2)c1C | 126
Cc1cccc(Cl)c1CNC(=O)Cc1c(C)nn(-c2ccccc2)c1C | 39.8
Cc1nn(CCNCC(C)C)c(C)c1CC(=O)NCc1ccc(F)cc1Cl | 39.8
Cc1ncccc1-n1nc(C)c(CC(=O)NCc2ccc(F)cc2Cl)c1C | 79.4
Cc1cncc(-n2nc(C)c(CC(=O)NCc3ccc(F)cc3Cl)c2C)c1 | 316
Cc1nn(CCNCCO)c(C)c1CC(=O)NCc1ccc(F)cc1Cl | 100
Cc1nn(CCN(C)CCO)c(C)c1CC(=O)NCc1ccc(F)cc1Cl | 200
COCCNCCn1nc(C)c(CC(=O)NCc2ccc(F)cc2Cl)c1C | 126

SMILES | IC50 [nM]
Cc1nn(CCO)c(C)c1CC(=O)NCc1cccc(Cl)c1C | 63.1
Cc1nn(CCN)c(C)c1CC(=O)NCc1ccc(F)cc1Cl | 158
COCCn1nc(C)c(CC(=O)NCc2ccc(F)cc2Cl)c1C | 398
Cc1nn(-c2ccccc2)c(C)c1CC(=O)NCc1cc(Cl)ccc1F | 631
Cc1nn(CCN2CCOCC2)c(C)c1CC(=O)NCc1cccc(Cl)c1C | 126
Cc1nn(CC(C)(C)O)c(C)c1CC(=O)NCc1ccc(F)cc1Cl | 316
Cc1nn(CC(C)(C)O)c(C)c1CC(=O)NCc1ccc(F)c(F)c1F | 794
Cc1nn(CC(C)(C)O)c(C)c1CC(=O)NCc1cccc(Cl)c1C | 158
Cc1cccc(Cl)c1CNC(=O)Cc1c(C)nn(CC(C)(C)O)c1C | 200
CCOc1cccc(-n2cc(CC(=O)NCc3ccc(F)cc3Cl)cn2)n1 | 1260
Cc1nn(-c2ncccn2)c(C)c1CC(=O)NCc1ccc(F)c(F)c1F | 79.4
O=C(Cc1cnn(CCO)c1C(F)(F)F)NCc1ccc(F)cc1Cl | 200
O=C(Cc1cn(CCO)nc1C(F)(F)F)NCc1ccc(F)cc1Cl | 398
O=C(Cc1cn(CCNCCO)nc1C(F)(F)F)NCc1ccc(F)cc1Cl | 631
O=C(Cc1cn(CCNC2CCOCC2)nc1C(F)(F)F)NCc1ccc(F)cc1Cl | 794
O=C(Cc1cnn(-c2ccc(F)cc2)c1Br)NCc1ccc(F)cc1Cl | 398
COc1ccc(-n2nc(C)c(CC(=O)NCc3ccc(F)cc3Cl)c2C)cn1 | 251
COc1cncc(-n2nc(C)c(CC(=O)NCc3ccc(F)cc3Cl)c2C)c1 | 398
COc1ncccc1-n1nc(C)c(CC(=O)NCc2ccc(F)cc2Cl)c1C | 251
CN(C)CCn1ncc(CC(=O)NCc2ccc(F)cc2Cl)c1C(F)(F)F | 1260
O=C(Cc1cnn(CCNC2CCOCC2)c1C(F)(F)F)NCc1ccc(F)cc1Cl | 1260
O=C(Cc1cnn(CCN2CCCCC2)c1C(F)(F)F)NCc1ccc(F)cc1Cl | 794
COCCNCCn1ncc(CC(=O)NCc2ccc(F)cc2Cl)c1C(F)(F)F | 794
CCN1C(=O)CC[C@H]1C(=O)NCc1ccc(F)c(F)c1F | 158
CCN1C(=O)CC[C@H]1C(=O)NCc1ccccc1Br | 251
CCN1C(=O)CC[C@H]1C(=O)NCc1c(F)cccc1Cl | 1000
CCN1C(=O)CC[C@H]1C(=O)NCc1ccc(Cl)cc1C | 25.1

SMILES | IC50 [nM]
CCN1C(=O)CC[C@H]1C(=O)NCc1c(C)cc(C)cc1C | 50.1
CCN1C(=O)CC[C@H]1C(=O)NCc1c(F)ccc(F)c1Cl | 794
CN1C(=O)CC[C@H]1C(=O)NCc1ccc(Cl)cc1Cl | 12.6
CCN1C(=O)[C@H](Cc2ccccc2)C[C@H]1C(=O)NCc1ccc(F)cc1Cl | 100
CCN1C(=O)CC[C@H]1C(=O)NCc1ccc(Cl)c(Cl)c1 | 251
CCN1C(=O)CC[C@H]1C(=O)NCc1ccc(F)cc1C(F)(F)F | 39.8
CCN1C(=O)CC[C@H]1C(=O)NCc1ccc(C)cc1C | 158
CCN1C(=O)CC[C@H]1C(=O)NCc1c(C)cccc1Cl | 100
CCN1C(=O)CC[C@H]1C(=O)NCc1c(F)ccc(C)c1Cl | 158
CCN1C(=O)CC[C@H]1C(=O)NCc1c(Cl)ccc(C)c1F | 794
CCN1C(=O)CC[C@H]1C(=O)NCc1cccc(Cl)c1C | 15.8
CCN1C(=O)CC[C@H]1C(=O)NCc1cccc(F)c1F | 398
CCN1C(=O)CC[C@H]1C(=O)NCc1c(Cl)cccc1Cl | 100
CCN1C(=O)CC[C@H]1C(=O)NCc1ccc(F)c(C(F)(F)F)c1 | 79.4
CCN1C(=O)CC[C@H]1C(=O)NCc1ccc(Cl)c(C(F)(F)F)c1 | 79.4
CCN1C(=O)CC[C@H]1C(=O)NCc1ccc(C(F)(F)F)cc1 | 200
CCN1C(=O)CC[C@H]1C(=O)NCc1ccc(Br)cc1F | 39.8
CCN1C(=O)CC[C@H]1C(=O)NCc1ccccc1C | 794
CCN1C(=O)CC[C@H]1C(=O)NCc1ccc(F)c(F)c1Cl | 7.94
CCN1C(=O)OC[C@@H]1C(=O)NCc1ccc(F)cc1Cl | 316
CCN1C(=O)OC[C@H]1C(=O)NCc1ccc(F)cc1Cl | 100
CC1(C(=O)NCc2ccc(Cl)cc2Cl)CCC(=O)N1C1CCC1 (stereo not given) | 100
CCN1C(=O)CC[C@H]1C(=O)NCc1cccc(C(F)(F)F)c1F | 25.1
CCN1C(=O)CC[C@H]1C(=O)NCc1cccc(Cl)c1F | 79.4
